Measured values as given in ChEMBL document CHEMBL3507680, “University of Dundee, Gates Library screen for HepG2 cell viability”.

Test: Human HepG2 cell viability assay in 384 well format
Format: toxicity, cell-based
Set-up: dose 125 nL, time 70.5 hour; cytotoxicity at 70.5 h: concentration not given beside the values
Details: HepG2 cells, read-out: Inhibition

SMILES	cytotoxicity at 70.5 h [%]
Cc1c(NC(C)C(C)C)cccc1C(=O)NCc1ccnn1C (stereo not drawn)	4.31
CCN(CCCNc1ncnc2cc(F)c(F)cc12)S(C)(=O)=O	-1.36
CS(=O)(=O)NCCC(=O)N1CCN(S(=O)(=O)c2ccc(Br)cc2)CC1	6.55
COc1cc(C)c(CNC(C)c2csc(C3CC3)n2)cc1OC (stereo not drawn)	-4
CC(C)n1cc(N2CC(C(=O)N3CCC(C(N)=O)CC3)CC2=O)cn1 (stereo not drawn)	-11.7
CCOC(=O)c1ccc(CNC(=O)c2ccon2)o1	14.2
O=C(c1ccccc1)N1CCS(=O)(=O)[C@@H]2CCNCC[C@@H]21	3.07
COc1ccc(Nc2ncccc2C#N)cc1N1CCCC1=O	5.71
O=S(=O)(NCCCn1ccc2ccccc21)N1CCCCC1	16.7
Cc1noc(C)c1CN1CCC2(CC1)CCN(C(=O)c1cscn1)C2	10.4
CN1CCOC(C(=O)N2CCC3(CCCC3)CC2)C1 (stereo not drawn)	-2.13
COc1cccc(-c2nc(CNCCCn3cccn3)cs2)c1	-3.21
Cc1ccc(Cl)cc1NC(=O)Cn1cc(C(=O)O)ccc1=O	4.77
O=C([C@H]1COC[C@H]2CN(CC3CC3)C[C@H]21)N1CCOCC1	-2.68
O=C(NC[C@]12COC[C@H]1CN(Cc1nccs1)C2)c1ccsc1	-3.53
COCCN1CC(C(=O)NCc2ccnc(-n3cccn3)c2)CC1=O (stereo not drawn)	-6.88
O=C(NCCn1ccnc1)c1ccn(-c2ccc(F)cc2)n1	-2.38
CC(C(=O)NCC(C)(C)c1ccc(Br)cc1)n1cncn1 (stereo not drawn)	-12.2
CCCNc1ncc(CN2CCC3(CCNC(=O)CC3)CC2)cn1	-3.92
COc1ncc(NS(=O)(=O)c2ccc(OC)c(C)c2)c(OC)n1	7.97
CCN(Cc1ccc2c(c1)OCCO2)C(=O)NCc1nc(C)cs1	-27.9
CC(NC(=O)NCCCN(C)S(C)(=O)=O)c1ccc(Cl)cc1 (stereo not drawn)	-7.7
Cc1ccsc1CNC(=O)Nc1ccn(CCN2CCOCC2)n1	14.8

SMILES	cytotoxicity at 70.5 h [%]
CCC(O)CN1CCN(C(=O)c2ccn(C)c(=O)c2)CC1 (stereo not drawn)	-9.11
CC(=O)c1cc(CN2C[C@H]3CC[C@@H]2CN(Cc2c(C)noc2C)C3)cs1	-8.51
COCC(=O)N[C@H]1C[C@H]2C(=O)NC[C@@H](CCC(=O)NC3CC3)N2C1	-2.9
Cc1cc(=O)[nH]c(NCCNC(=O)CN2CCCCCC2)n1	15.9
CSc1ncccc1C(=O)NCCC(O)c1cccs1 (stereo not drawn)	-2.95
O=C(c1scc2c1OCCO2)N1CCC(Cc2cccc(CO)c2)C1 (stereo not drawn)	-3.37
CCC(c1ccc(F)cc1F)S(=O)(=O)CCO (stereo not drawn)	-1.73
O=C(C1CC=CC1)N1Cc2nccn2CC(CN2CCCC2)C1 (stereo not drawn)	-4.01
c1cnc(N2CCCC3(CCN(Cc4ccncc4)C3)C2)nc1 (stereo not drawn)	-13.2
O=S1(=O)CCC(CNc2cc(-c3ccccc3)nc3ccnn23)C1 (stereo not drawn)	-9.95
CCc1csc(C2CCCN(C(=O)COc3cc(C)on3)C2)n1 (stereo not drawn)	-8.8
Cc1ccc(CN2CCc3ncnc(-c4ccoc4)c3CC2)o1	2.47
Cc1csc(Nc2cc(C3CN(c4ccncn4)C3)nc(C)n2)n1	-8.67
COc1ccc(N2CCN(C(=O)c3cc(=O)c(OC)c[nH]3)CC2)cc1	-6.09
O=C(CSCc1ccccn1)NCC1CCN(C2CC2)C1 (stereo not drawn)	0.243
O=C(NCCn1ccnc1)c1ccn(-c2cccc(F)c2)n1	12.4
CN(Cc1cnn(C)c1)C(=O)c1ccnc(OC2CCC2)c1	15.8
CN1CCC(NC(=O)CC2CN(Cc3ccccc3)CCO2)CC1 (stereo not drawn)	-5.42
CC(=O)NCCn1ccnc1-c1cccc(C(C)N(C)C)c1 (stereo not drawn)	5.57
CN1CC[C@H]2CN(C(=O)c3ccc4sc5c(c4c3)CCNC5=O)C[C@H]21	-1.19
CC(C)(CNc1cn[nH]c(=O)c1Cl)c1ccc2c(c1)OCO2	-13.4
CCCN1CCC(CNC(=O)C2(c3cccc(C)c3)CC2)C1 (stereo not drawn)	4.42
CCc1[nH]c2ccc(CNC(=O)Cc3c(C)nc(N)nc3C)cc2c1C	1.33

SMILES	cytotoxicity at 70.5 h [%]
O=C(NCCN1CCOCC1)NCc1ncc(-c2ccccc2)o1	-11.5
O=C(CCc1cc(O)no1)N1CCCC(COc2ccc(F)cc2)C1 (stereo not drawn)	-3.78
c1c(CN2CCCC2)nc2n1CCNC2	9.22
Cc1noc(C)c1CCc1nc(C2CCOC2)no1 (stereo not drawn)	-11.1
Cn1ccnc1C1c2nc[nH]c2CCN1Cc1cccnc1 (stereo not drawn)	-5.94
Cc1ccn(-c2ccc(C(=O)N3CCCC(n4ccnc4)C3)cc2)n1 (stereo not drawn)	-22.3
N#CCCCOc1cccc(CN2CCCC2c2ccc[nH]2)c1 (stereo not drawn)	1.38
COCCN(Cc1nc2c(cnn2C)c(=O)[nH]1)Cc1ccco1	-7.8
COCCCN(C)S(=O)(=O)c1ccc(C(F)(F)F)cc1C#N	-10.6
CCc1noc(CN(C)Cc2cc(Br)ccc2OC)n1	-5.46
CC(C)CN1C[C@H]2C[C@H](C(=O)NCc3cccnc3)[C@@H](C1)O2	2.54
CN(C)[C@@H]1CN(C(=O)Cc2cccs2)[C@@H]2CCCO[C@H]12	-5.81
O=C(CCc1ccccn1)N1CCSC2(CCCCC2)C1	3.22
O=C(NCc1cc[nH]n1)N1CCN(c2ncccn2)CC1	-8.57
CN1CCN(C[C@@H]2CN(C(=O)NCC3CCCCC3)C[C@@H]2CO)CC1	27.6
COC[C@H]1CC[C@H]2[C@H](CCN2C(=O)c2ccncc2F)O1	-0.359
O=C(CCSc1ccc(F)cc1)N1CCN(c2cnccn2)CC1	-14.2
CC(=O)NCCc1ccc(S(=O)(=O)Nc2cc(F)ccc2C)s1	3.63
c1ccc(-n2cc(CN3CCCC3Cn3cncn3)nn2)cc1 (stereo not drawn)	-1.22
CC(C)NC(=O)CSc1nc2c(cnn2CCO)c(=O)[nH]1	26.7
Cc1nc(N2CCCC2)nc2c1CCN(Cc1ccco1)CC2	-16.4
Cc1cnc(CN(C)C2CCN(Cc3ccccc3C#N)C2)o1 (stereo not drawn)	-5.36
Cc1cnn(CC2CCCCN2C(=O)c2ccc3[nH]c(=O)[nH]c3c2)c1 (stereo not drawn)	-0.746

SMILES	cytotoxicity at 70.5 h [%]
CC(NC(=O)Nc1ccccc1CN1CCOCC1)c1nnc(N)s1 (stereo not drawn)	-11.9
CC(NC(=O)CCn1cccn1)c1ccc2c(c1)OCCO2 (stereo not drawn)	14.2
Cc1cc(C(=O)NCC(C)C)c2c(C3CCCN3)noc2n1 (stereo not drawn)	-5.52
Nc1nc(CN2CCCCC2Cn2cncn2)nc2ccccc12 (stereo not drawn)	0.228
Cc1nc(CN(C)C2CCN(Cc3cccc4cccnc34)C2)no1 (stereo not drawn)	34
O=C(c1cnc(COc2ccccc2)nc1O)N1CCC(F)(F)CC1	-5.82
Cn1cc(CN2CC[C@]3(C[C@H](OCc4ccccn4)CO3)C2)cn1	-22.4
C=C(C)COc1ccccc1CNCCc1c[nH]cn1	2.66
COc1ccc(C(=O)N2CCC(C3CCN(c4ncccn4)CC3)C2)o1 (stereo not drawn)	2.75
CCn1cc(C(=O)N2CCCN(c3cccnn3)CC2)c2ccccc21	14.2
Cc1cnn(CCNCc2cc(C#N)ccc2F)c1	18.7
Cc1c(C(=O)N(C)CC(C)O)sc2nc(C(F)(F)F)ccc12 (stereo not drawn)	-9.55
c1ncn(CC2CCCN(Cc3nnc(C4CC4)o3)C2)n1 (stereo not drawn)	11.5
CC(O)(CNC(=O)c1cccnc1-n1cccn1)c1ccco1 (stereo not drawn)	-4.51
COc1ccc(CN(C)C(=O)NCc2c(C)cc(C)[nH]c2=O)cc1	-4.65
N[C@@H]1CCC[C@@H](Oc2ccc(F)cc2Oc2cccc(F)c2)[C@@H]1O	-1.82
CC(C)[C@H]1CN(c2ccnc(N)n2)C[C@@H]1NC(=O)C1(C#N)CCOCC1	-9.5
COCCN(CCN(C)C)C(=O)NC1CC1	-2.74
COCCN(Cc1sccc1C)C(=O)COc1cccnc1	-4.34
Cc1nc(CN(C)C2CCN(Cc3ccc4c(c3)CCC4)C2)no1 (stereo not drawn)	-9.34
COC(=O)c1ccc(Cl)c(S(=O)(=O)Nc2ccc(F)c(C(N)=O)c2)c1	-14.5
CC(C)CCN1CCN(C(=O)c2cccnc2-n2cncn2)CC1	-3.48
Cc1ccc(N2C[C@@H](CN3CCOCC3)[C@@H](CO)C2)nn1	-16.8

SMILES	cytotoxicity at 70.5 h [%]
Cn1cc(CN2CCCN(C(=O)c3ccc4ccccc4n3)CC2)cn1	-13
CC(NS(C)(=O)=O)C(=O)N(C)Cc1csc(-c2cccs2)n1 (stereo not drawn)	-13.4
Cn1c(CC(=O)O)c(Sc2ccccc2)c2ccccc21	-0.644
N#Cc1ccc(CN2C[C@@H]3OCC(=O)N(CC(N)=O)[C@@H]3C2)cc1	-3.35
Cc1cccc(-c2nc(CN3CCn4c(nnc4C4CC4)C3)no2)c1	-12.1
CCN(CC)S(=O)(=O)c1ccc2c(c1)N(Cc1cccnc1)C(=O)CS2	-4.53
N#Cc1cccnc1N1CCCN(CC(=O)N2CCNC(=O)C2)CC1	-5.07
O=C(N1CCCC(n2cncn2)C1)C1(c2cccc(F)c2)CC1 (stereo not drawn)	-7.31
NC(=O)C1(c2cnccn2)CCCN1Cc1cccc(Cl)c1 (stereo not drawn)	-2.75
Cc1cc(C(=O)N2CC[C@@]3(O)CCN(S(C)(=O)=O)C[C@H]3C2)c(C)n1C	18.6
NC(=O)CC1CCN(c2cncc(OCc3ccccc3)n2)CC1	-5.14
O=C(c1ccc(Cl)cc1)N1CCC(N2CCCOC2=O)CC1	-6.91
O=C1Nc2ccccc2CC12CCCN2Cc1ccccn1 (stereo not drawn)	29.1
CC(c1ccc(-c2cnc(N)nc2)cc1)N1CCOCC1 (stereo not drawn)	-3.76
COc1ccc(CC2CCCN2CCCC#N)cc1 (stereo not drawn)	-4.33
Cc1ccc(C2NC(=O)c3cc(C(C)C)sc3N2)cc1 (stereo not drawn)	-5.82
CCn1nc(C)c2c1cnn2CC(=O)NC(C)c1cccc(OC)c1 (stereo not drawn)	-15.4
CCn1ccnc1CN1CCCN(C(=O)c2ccnn2C)CC1	-3.84
CCCC(=O)N1CCCC(Cn2cc(-c3ccc(F)cc3)nn2)C1 (stereo not drawn)	-11.1
COCC1CN(Cc2ccc(C)o2)Cc2cnn(CC3CCOCC3)c21 (stereo not drawn)	6.49
Cc1nnc(C(C)Nc2cccc(COCC(F)(F)C(F)F)c2)o1 (stereo not drawn)	24.9
